The text below walks through data of patent publication US11739098B2 (BRISTOL-MYERS SQUIBB COMPANY, priority 2017, dated 2023).

Common to all, as to type: cell-based
One experiment has as its target T1, human TLR9 (Homo sapiens, UniProt Q9NR96).
T1 construct: host or cells: HEK-Blue cells (HEK293-derived reporter line)
T1 sequence (Q9NR96 26-1032): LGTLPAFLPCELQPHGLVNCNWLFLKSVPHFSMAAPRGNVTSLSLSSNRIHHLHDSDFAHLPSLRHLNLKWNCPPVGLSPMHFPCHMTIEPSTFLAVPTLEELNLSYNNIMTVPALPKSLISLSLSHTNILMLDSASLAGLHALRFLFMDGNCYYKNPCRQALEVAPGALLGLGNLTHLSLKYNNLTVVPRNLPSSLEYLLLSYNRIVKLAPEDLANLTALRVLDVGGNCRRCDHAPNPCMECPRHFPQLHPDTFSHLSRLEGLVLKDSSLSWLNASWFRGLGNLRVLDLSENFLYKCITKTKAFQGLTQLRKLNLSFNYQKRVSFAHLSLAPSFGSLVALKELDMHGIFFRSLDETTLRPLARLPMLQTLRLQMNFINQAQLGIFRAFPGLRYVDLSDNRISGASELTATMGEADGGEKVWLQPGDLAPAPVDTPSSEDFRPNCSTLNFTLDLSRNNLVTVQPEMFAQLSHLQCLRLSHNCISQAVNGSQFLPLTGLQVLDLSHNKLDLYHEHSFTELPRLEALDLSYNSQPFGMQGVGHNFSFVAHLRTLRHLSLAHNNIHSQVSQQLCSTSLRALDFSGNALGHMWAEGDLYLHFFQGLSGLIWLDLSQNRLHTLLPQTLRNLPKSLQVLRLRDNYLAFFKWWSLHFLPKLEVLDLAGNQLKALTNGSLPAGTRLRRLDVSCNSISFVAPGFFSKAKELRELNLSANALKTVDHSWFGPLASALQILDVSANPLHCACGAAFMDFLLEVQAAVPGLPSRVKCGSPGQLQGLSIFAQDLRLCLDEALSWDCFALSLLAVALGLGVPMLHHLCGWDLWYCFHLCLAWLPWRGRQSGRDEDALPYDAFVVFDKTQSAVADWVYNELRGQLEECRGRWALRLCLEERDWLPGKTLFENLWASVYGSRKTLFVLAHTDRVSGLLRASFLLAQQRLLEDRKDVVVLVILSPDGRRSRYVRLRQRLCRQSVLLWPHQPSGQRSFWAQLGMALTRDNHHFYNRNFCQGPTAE
Briefly: TLR9 inhibition reporter assay (HEK-Blue cells, SEAP reporter, ODN2006 stimulation). The conditions noted are these: HEK-Blue cells overexpressing human TLR9, SEAP reporter, ODN2006 5 nM. The method, boiled down:
(§1)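 Cells seeded per well (15000 TLR7, 20,000 TLR8, 25,000 TLR9); compound added over 0.05 nM–50 μM for 30 min at room temperature; agonist added (TLR7 gardiquimod 7.5 μM, TLR8 R848 15.9 μM, TLR9 ODN2006 5 nM); 22 h at 37 °C; SEAP measured; percent inhibition calculated.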
(In a reporter assay the amount or activity of a reporter protein is the signal.)

Another experiment has as its target T2, human TLR8 (Homo sapiens, UniProt Q9NR97).
T2 construct: host or cells: HEK-Blue cells (HEK293-derived reporter line)
T2 sequence (Q9NR97 27-1041): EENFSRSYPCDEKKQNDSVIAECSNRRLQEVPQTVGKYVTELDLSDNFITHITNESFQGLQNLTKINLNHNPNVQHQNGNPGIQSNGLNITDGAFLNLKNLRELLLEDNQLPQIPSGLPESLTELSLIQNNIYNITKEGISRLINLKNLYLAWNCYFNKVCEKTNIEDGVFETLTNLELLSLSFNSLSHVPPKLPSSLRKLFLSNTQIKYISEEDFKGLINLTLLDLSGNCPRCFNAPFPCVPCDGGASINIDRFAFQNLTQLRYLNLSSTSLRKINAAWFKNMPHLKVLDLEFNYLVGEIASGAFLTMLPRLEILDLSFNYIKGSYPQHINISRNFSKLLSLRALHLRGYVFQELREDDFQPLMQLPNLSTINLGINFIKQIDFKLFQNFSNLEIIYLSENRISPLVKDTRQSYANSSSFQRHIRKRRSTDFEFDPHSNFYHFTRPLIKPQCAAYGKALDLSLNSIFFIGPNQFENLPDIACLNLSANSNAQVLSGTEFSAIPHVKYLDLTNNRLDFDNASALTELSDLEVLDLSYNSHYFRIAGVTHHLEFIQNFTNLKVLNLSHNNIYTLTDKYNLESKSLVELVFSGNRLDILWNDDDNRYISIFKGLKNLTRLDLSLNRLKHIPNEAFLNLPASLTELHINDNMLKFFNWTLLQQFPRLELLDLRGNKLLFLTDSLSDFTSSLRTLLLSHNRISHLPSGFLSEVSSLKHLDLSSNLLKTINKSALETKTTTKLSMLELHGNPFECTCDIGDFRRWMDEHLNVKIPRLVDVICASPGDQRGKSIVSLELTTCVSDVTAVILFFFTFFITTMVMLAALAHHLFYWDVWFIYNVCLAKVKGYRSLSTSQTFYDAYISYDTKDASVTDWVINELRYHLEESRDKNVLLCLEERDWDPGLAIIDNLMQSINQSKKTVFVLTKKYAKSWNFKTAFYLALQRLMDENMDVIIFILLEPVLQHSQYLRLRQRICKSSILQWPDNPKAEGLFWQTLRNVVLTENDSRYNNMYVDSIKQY
In words: TLR8 inhibition reporter assay (HEK-Blue cells, SEAP reporter, R848 stimulation). The following applies: HEK-Blue cells overexpressing human TLR8, SEAP reporter, R848 15.9 μM. The essentials: as §1

Another experiment concerns the target T3, human TLR7 (Homo sapiens, UniProt Q9NYK1).
T3 construct: host or cells: HEK-Blue cells (HEK293-derived reporter line)
T3 sequence (Q9NYK1 27-1049): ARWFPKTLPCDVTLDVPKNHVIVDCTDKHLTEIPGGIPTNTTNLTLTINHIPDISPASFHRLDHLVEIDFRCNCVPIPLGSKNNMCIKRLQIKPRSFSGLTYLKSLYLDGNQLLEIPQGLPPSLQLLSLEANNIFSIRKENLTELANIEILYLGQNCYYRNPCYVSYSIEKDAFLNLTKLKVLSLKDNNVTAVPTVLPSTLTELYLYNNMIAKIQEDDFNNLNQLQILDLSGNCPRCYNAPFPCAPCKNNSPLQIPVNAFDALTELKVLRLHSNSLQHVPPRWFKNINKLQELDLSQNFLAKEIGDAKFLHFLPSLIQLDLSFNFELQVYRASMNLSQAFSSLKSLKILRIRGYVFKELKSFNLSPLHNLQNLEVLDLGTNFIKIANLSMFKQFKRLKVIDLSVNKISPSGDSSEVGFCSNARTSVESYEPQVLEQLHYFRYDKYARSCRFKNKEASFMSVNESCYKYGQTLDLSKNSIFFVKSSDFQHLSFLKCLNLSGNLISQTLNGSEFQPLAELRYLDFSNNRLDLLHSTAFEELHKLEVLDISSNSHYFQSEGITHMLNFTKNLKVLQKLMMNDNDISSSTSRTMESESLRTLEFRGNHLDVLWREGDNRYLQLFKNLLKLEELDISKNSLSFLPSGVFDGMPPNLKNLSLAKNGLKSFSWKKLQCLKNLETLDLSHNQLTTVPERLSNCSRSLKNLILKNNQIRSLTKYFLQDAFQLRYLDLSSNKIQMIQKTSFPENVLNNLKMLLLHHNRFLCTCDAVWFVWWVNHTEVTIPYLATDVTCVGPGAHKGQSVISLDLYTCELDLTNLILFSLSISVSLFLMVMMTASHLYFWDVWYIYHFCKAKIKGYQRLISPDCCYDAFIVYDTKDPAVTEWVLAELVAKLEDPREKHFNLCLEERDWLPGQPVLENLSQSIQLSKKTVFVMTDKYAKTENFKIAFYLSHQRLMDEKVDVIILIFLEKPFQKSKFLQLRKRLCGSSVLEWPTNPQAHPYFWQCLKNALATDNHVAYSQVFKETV
Briefly: TLR7 inhibition reporter assay (HEK-Blue cells, SEAP reporter, gardiquimod stimulation). The following applies: HEK-Blue cells overexpressing human TLR7, SEAP reporter, gardiquimod 7.5 μM. The essentials: as §1

Consider `Cc1cc(-c2[nH]c3ccc(C4CCN(CC(=O)N(C)C)CC4)cc3c2C(C)C)nn2ccnc12` [Example 447, 2-(4-(3-isopropyl-2-(8-methylimidazo[1,2-b]pyridazin-6-yl)-1H-indol-5-yl)piperidin-1-yl)-N,N-dimethylacetamide], for which the IC50 at human TLR9 is 1000 to 50000 nM; on human TLR8, < 100 nM; on human TLR7, < 100 nM.

On to `CNC(=O)CN1CCC(c2ccc3[nH]c(-c4cc(C)c5nccn5n4)c(C(C)C)c3c2)CC1` [Example 448, 2-(4-(3-isopropyl-2-(8-methylimidazo[1,2-b]pyridazin-6-yl)-1H-indol-5-yl)piperidin-1-yl)-N-methylacetamide], for which the figures for the IC50 against human TLR9, against human TLR8 and against human TLR7 were 1000 to 50000 nM, < 100 nM and < 100 nM, respectively.

As for `CC(C)c1c(-c2ccnc3[nH]ncc23)[nH]c2ccc(C3CCN(C(=O)CN(C)C)CC3)cc12` [Example 449, 2-(dimethylamino)-1-(4-(3-isopropyl-2-(1H-pyrazolo[3,4-b]pyridin-4-yl)-1H-indol-5-yl)piperidin-1-yl)ethanone], the IC50 against human TLR9 is 1000 to 50000 nM; against human TLR8 it was < 100 nM; at human TLR7, < 100 nM.

As for `CC(C)c1c(-c2ccnc3c2ccn3S(C)(=O)=O)[nH]c2ccc(C3CCN(C(=O)CN(C)C)CC3)cc12` [Example 450, 2-(dimethylamino)-1-(4-(3-isopropyl-2-(1-(methylsulfonyl)-1H-pyrrolo[2,3-b]pyridin-4-yl)-1H-indol-5-yl)piperidin-1-yl)ethanone], the IC50 at human TLR9 is 100 to 1000 nM; on human TLR8, < 100 nM; at human TLR7, 1000 to 50000 nM.

As to `COc1c(C)c(-c2[nH]c3ccc(C4CCN(C(=O)CN(C)C)CC4)cc3c2C(C)C)nn2ncnc12` [Example 451, 2-(dimethylamino)-1-(4-(3-isopropyl-2-(8-methoxy-7-methyl-[1,2,4]triazolo[1,5-b]pyridazin-6-yl)-1H-indol-5-yl)piperidin-1-yl)ethan-1-one], the IC50 against human TLR9 is 1000 to 50000 nM; against human TLR8, < 100 nM; against human TLR7, < 100 nM.

As to `CC(C)c1c(-c2ccc3ncnn3n2)[nH]c2ccc(C3CCN(C(=O)CN(C)C)CC3)cc12` [Example 452, 1-(4-(2-([1,2,4]triazolo[1,5-b]pyridazin-6-yl)-3-isopropyl-1H-indol-5-yl)piperidin-1-yl)-2-(dimethylamino)ethan-1-one], the IC50 on human TLR9 is 1000 to 50000 nM; against human TLR8 it was < 100 nM; at human TLR7, < 100 nM.

For `Cc1c(-c2[nH]c3ccc(C4CCN(C(=O)CN(C)C)CC4)cc3c2C(C)C)nn2ncnc2c1C` [Example 453, 1-(4-(2-(7,8-dimethyl-[1,2,4]triazolo [1,5-b]pyridazin-6-yl)-3-isopropyl-1H-indol-5-yl)piperidin-1-yl)-2-(dimethylamino)ethan-1-one], the IC50 was 1000 to 50000 nM against human TLR9, < 100 nM against human TLR8 and < 100 nM against human TLR7.

As for `Cc1cc(-c2[nH]c3ccc(C4CCN(C(=O)CN(C)C)CC4)cc3c2C(C)C)nn2ncnc12` [Example 454, 2-(dimethylamino)-1-(4-(3-isopropyl-2-(8-methyl-[1,2,4]triazolo[1,5-b]pyridazin-6-yl)-1H-indol-5-yl)piperidin-1-yl)ethan-1-one], the IC50 at human TLR9 is 1000 to 50000 nM; against human TLR8 it was < 100 nM; on human TLR7, < 100 nM.

In the case of `Cc1cc2ncnn2nc1-c1[nH]c2ccc(C3CCN(C(=O)CN(C)C)CC3)cc2c1C(C)C` [Example 455, 2-(dimethylamino)-1-(4-(3-isopropyl-2-(7-methyl-[1,2,4]triazolo[1,5-b]pyridazin-6-yl)-1H-indol-5-yl)piperidin-1-yl)ethan-1-one], the IC50 at human TLR9 was 1000 to 50000 nM; at human TLR8, < 100 nM; on human TLR7, < 100 nM.

Regarding `CC(C)c1c(-c2cn(C)c3ncncc23)[nH]c2ccc(C3CCN(C(=O)CN(C)C)CC3)cc12` [Example 456, 2-(dimethylamino)-1-(4-(3-isopropyl-2-(7-methyl-7H-pyrrolo[2,3-d]pyrimidin-5-yl)-1H-indol-5-yl)piperidin-1-yl)ethan-1-one], the IC50 is 1000 to 50000 nM on human TLR9, < 100 nM against human TLR8 and < 100 nM at human TLR7.

A word on the IC50: it is the concentration that gives 50% inhibition. A lower IC50 goes with inhibition by little substance.
